Laboratory results: patent publication US20210380602A1, “NOVEL PYRROLE AND PYRIDONE DERIVATIVES AND USES THEREOF” (VIRGINIA COMMONWEALTH UNIVERSITY, priority 2018, published 2021)
Where two headings read alike, the source gives them in different places.

Test system: HIV-1IIIB
Test: Anti-HIV cytoprotection assay in CEM-SS cells infected with HIV-1IIIB, XTT viability readout after 6 days
Assay type: cell-based
Protocol: (§1) In some aspect, CEM-SS cells were incubated at 37° C./5% CO2 with serially diluted compound and a known titer of HIV-1IIIB for 6 days. The CEM-SS cell line is a derivative of the human T lymphosarcoma cell line CEM that is permissive for vif-deficient HIV-1 replication. Following the incubation, the cells were stained with the tetrazolium dye XTT and read at 460/650 nm on a spectrophotometer to evaluate cellular viability. Efficacy and toxicity values were calculated using linear regression analysis. The efficacy of compound H-a was compared to that of dolutegravir. The EC50 of compound II-a was in a range of 0.070-0.02 nM (e.g. 0.070, 0.075, 0.080, 0.085, 0.090, 0.095, 0.010, 0.015 or 0.02 nM)
as §1, with “CEM-SS” for “In some aspect, CEM-SS”, “analysis.” for “analysis. The efficacy of compound H-a was compared to that of dolutegravir. The EC50 of compound II-a was in a range of 0.070-0.02 nM (e.g. 0.070, 0.075, 0.080, 0.085, 0.090, 0.095, 0.010, 0.015 or 0.02 nM)”

Row | EC50 (Human immunodeficiency virus 1, CEM-SS, 144 h) | EC50 | SMILES
1 | 120 pM | – | C[C@@H]1CCO[C@H]2Cn3cc(C(=O)NCc4ccc(F)cc4F)c(=O)c(O)c3C(=O)N12 [Compound I, Dolutegravir]
2 | – | 95 pM | C[C@@H]1CCO[C@H]2Cn3cc(C(=O)C(=O)NCc4ccc(F)cc4F)c(O)c3C(=O)N12 [Compound II-a]
